pEC50: −log10 of the molar value.

The subject of the first test is HT-29 cells. Nature of the test: HT-29 cell necrosis/necroptosis inhibition (TNF-α + SMAC mimetic + zVAD-FMK; CellTiter-Glo cell viability). Format: cell-based. To be noted: Homo sapiens; HT-29 cells, TNF-α 10 ng/ml + SMAC mimetic 6 μM + zVAD-FMK 10 μM, 20 hours; geometric mean, 10 points in duplicate; read-out: EC50 (Cell activity; Necrosis/Necroptosis Inhibitory Activity, Compounds 1-142). The method, then: Compounds 1-319 (denoted as Compound Nos. 1 through 319 in Table 3 and 4) of the disclosure were tested for binding and cellular RIP1 inhibitory activity following the experimental procedures described below.
• Cell line: HT-29 (ATCC® HTB-38™) • Culture medium: McCOY's 5A, Gibco, Cat No. 16600-082 • FBS, Gibco, Cat No. 10099-141C • Trypsin: Gibco, Cat No. 25200-056 • DMSO: Sigma, Cat No. 67-68-5, 1L • Assay plate: Corning #3903 • Compound dilution plate: Corning #3357 • Inducers: TNFα, GenScript, Cat No. Z01001-50, • SmacM, Cat. No., HY-15989, MedChemExpress (MCE) • Z_VAD FMK, TargetMol, T6013 • Cell Titer-Glo® Luminescent Cell Viability Assay Kit: Promega, Cat No. G7573 • EnVision: PerkinElmer, 2105-0010 Methods Cell Seeding
1. HT-29 cells were checked every day to make sure that they were healthy and growing as expected. They were subjected to sub-culturing when they were approximately 80% confluent.
2. The culture medium, McCOY's 5A medium (Gibco, Cat No. 16600-082) with 10% fetal bovine serum or FBS (Gibco, Cat No. 10099-141C), was pre-warmed in a 37° C. water bath for at least 30 min.
3. When the cells had reached a desired level of confluency of 80% in a T75 flask, the medium was aspirated, and the cells were washed with warm phosphate buffered saline or PBS two times.
4. 2-3 ml fresh warm trypsin (Gibco, Cat No. 25200-056) solution was added to the washed cells. The flask with the cells was transferred to a 37° C. incubator.
5. After 5 minutes, the side of the flask was tapped, and the flask was examined under a microscope for detachment of the cells to the flask. If necessary, the cells were kept in the incubator for an additional 5-10 minutes, with occasional tapping, until lifting was complete.
6. The trypsin reaction was neutralized by transferring 6-9 ml cell culture medium to sterile 15 ml conical tubes, and by centrifuging the cell culture at 300×g for 7 minutes to pellet the cells (supernatant decanted).
7. The cells were resuspended in fresh cell culture medium and the cell counting was performed using a hemocytometer.
8. 100 μl of the resuspended cell culture medium containing ˜5,000 cells were transferred into each well of the sterile 96-well cell culture plate (Corning 3903) and cultured overnight at 37° C. with 5% CO2.
Compound Titration and Treatment
1. All test compounds were dissolved in DMSO (Dimethyl sulfoxide) to create a 20 mM stock.
2. 3 μl of each compound 20 mM stock was mixed with 27 μl DMSO, and the compound solution was further diluted at a titration ratio of 1:3 (20 μl compound solution+40 μl DMSO) till the 10 points end.
3. All culture medium was removed from assay plates filled with HT-29 cell cultures. The cells were then washed with 1 PBS, and resuspended in fresh, FBS-free McCOY's 5A medium containing a cocktail of TNF-α (10 ng/ml), a SMAC mimetic compound (6 μM) and Z-VAD-fluoromethylketone or zVAD-FMK (10 μM) to stimulate the HT-29 cells to increase RIP1 kinase levels and necroptosis.
4. 0.5 μL of the diluted compound solution was added to the corresponding 96-well assay plates.
5. The assay plates were incubated for 20 hours at 37° C. with 5% CO2.
1. The CellTiter-Glo® Luminescent Cell Viability Assay was employed to detect the ATP levels of viable HT-29 cells.
2. The CellTiter-Glo® buffer and the lyophilized substrate were equilibrated to room temperature prior to use.
3. The CellTiter-Glo® substrate was resuspended with CellTiter-Glo® buffer, then mixed by gently vortexing to obtain a homogeneous solution.
4. 20 μl the enzyme/substrate mixture was transferred by multi-channel pipetting into 96-well assay plates.
5. The assay plates were placed on an orbital shaker and the contents were shaken for 3 minutes to induce cell lysis.
6. The assay plates were incubated at room temperature for 10 minutes to stabilize the luminescent signal.
7. The luminescence signals were read and recorded with EnVision.
8. The geometric mean EC50 values were calculated from 10 points response dose with duplicates. In
In general terms: ATP-based viability assays read luminescence as a measure of living cells.
The pEC50 is the negative decadic logarithm of the EC50, by convention in mol/L. As to `O=C(N1CCN(c2nccc(-n3nnnc3C(F)(F)F)n2)CC1)N1N=CC[C@H]1c1ccccc1` [Compound 104, (S)-(5-phenyl-4,5-dihydro-1H-pyrazol-1-yl)(4-(4-(5-(trifluoromethyl)-1H-tetrazol-1-yl)pyrimidin-2-yl)piperazin-1-yl)methanone], the pEC50 was 7.00 to 10.00.

With `NC(=O)c1c[nH]c(-c2ccnc(N3CCN(C(=O)N4N=CC[C@H]4c4cc(F)cc(F)c4)CC3)n2)c1` [Compound 10, (S)-5-(2-(4-(5-(3,5-difluorophenyl)-4,5-dihydro-1H-pyrazole-1-carbonyl)piperazin-1-yl)pyrimidin-4-yl)-1H-pyrrole-3-carboxamide], the negative logarithm of the EC50 (pEC50) was 7.00 to 10.00.

Regarding `N#Cc1cc(F)cc([C@@H]2CC=NN2C(=O)N2CCN(c3ncc(F)c(-n4cnc(C#N)n4)n3)CC2)c1` [Compound 125, (S)-1-(2-(4-(5-(3-cyano-5-fluorophenyl)-4,5-dihydro-1H-pyrazole-1-carbonyl)piperazin-1-yl)-5-fluoropyrimidin-4-yl)-1H-1,2,4-triazole-3-carbonitrile], the pEC50 is 7.00 to 10.00.

Consider `Cc1nn(C)c(C)c1-c1nc(N2CCN(C(=O)N3N=CC[C@H]3c3cc(F)cc(F)c3)CC2)ncc1F` [Compound 58, (S)-(5-(3,5-difluorophenyl)-4,5-dihydro-1H-pyrazol-1-yl)(4-(5-fluoro-4-(1,3,5-trimethyl-1H-pyrazol-4-yl)pyrimidin-2-yl)piperazin-1-yl)methanone], for which the pEC50 was 7.00 to 10.00.

With `N#Cc1cc(F)cc([C@@H]2CC=NN2C(=O)N2CCN(c3ncc(F)c(-c4cc(O)nc(O)n4)n3)CC2)c1` [Compound 50, (S)-3-fluoro-5-(1-(4-(5-fluoro-2′,6′-dihydroxy-[4,4′-bipyrimidin]-2-yl)piperazine-1-carbonyl)-4,5-dihydro-1H-pyrazol-5-yl)benzonitrile], the pEC50 was 7.00 to 10.00.

Regarding `Cc1cn(-c2nc(N3CCN(C(=O)N4N=CC[C@H]4c4cc(F)cc(C#N)c4)CC3)ncc2F)c(C#N)n1` [Compound 16, (S)-1-(2-(4-(5-(3-cyano-5-fluorophenyl)-4,5-dihydro-1H-pyrazole-1-carbonyl)piperazin-1-yl)-5-fluoropyrimidin-4-yl)-4-methyl-1H-imidazole-2-carbonitrile], the negative-log EC50 (pEC50) was 7.00 to 10.00.

For the compound `Cc1nn(CC(N)=O)cc1-c1nc(N2CCN(C(=O)N3N=CC[C@H]3c3cc(F)cc(C#N)c3)CC2)ncc1F` [Compound 82], the pEC50 was 7.00 to 10.00.

On to `Cc1nn(-c2nc(N3CCN(C(=O)N4N=CC[C@H]4c4cc(F)cc(C#N)c4)CC3)ncc2F)c(=O)n1C` [Compound 96, (S)-3-(1-(4-(4-(3,4-dimethyl-5-oxo-4,5-dihydro-1H-1,2,4-triazol-1-yl)-5-fluoropyrimidin-2-yl)piperazine-1-carbonyl)-4,5-dihydro-1H-pyrazol-5-yl)-5-fluorobenzonitrile], for which the negative-log EC50 (pEC50) was 7.00 to 10.00.

As for `O=C(N1CCN(c2nccc(-c3cc[nH]n3)n2)CC1)N1N=CC[C@H]1c1cncc(F)c1` [Compound 36, (S)-(4-(4-(1H-pyrazol-3-yl)pyrimidin-2-yl)piperazin-1-yl)(5-(5-fluoropyridin-3-yl)-4,5-dihydro-1H-pyrazol-1-yl)methanone], the pEC50 was 7.00 to 10.00.

Still in this test, the particulars now being: Homo sapiens; HT-29 cells, TNF-α 10 ng/ml + SMAC mimetic 6 μM + zVAD-FMK 10 μM, 20 hours; geometric mean, 10 points in duplicate; read-out: EC50 (Cell activity; Necrosis/Necroptosis Inhibitory Activity, Compounds 143-323).
With `Cc1nc(C)n(-c2nc(N3CCN(C(=O)N4N=CC[C@H]4c4cnc(C)s4)CC3)ncc2F)n1` [Compound 240, (S)-(4-(4-(3,5-dimethyl-1H-1,2,4-triazol-1-yl)-5-fluoropyrimidin-2-yl)piperazin-1-yl)(5-(2-methylthiazol-5-yl)-4,5-dihydro-1H-pyrazol-1-yl)methanone], the negative logarithm of the EC50 (pEC50) is 7.00 to 10.00.

`Cc1nc(C)n(-c2ccnc(N3CCN(C(=O)N4N=CC[C@H]4c4cc(F)cc(C#N)c4)CC3)n2)n1` [Compound 243, (S)-3-(1-(4-(4-(3,5-dimethyl-1H-1,2,4-triazol-1-yl)pyrimidin-2-yl)piperazine-1-carbonyl)-4,5-dihydro-1H-pyrazol-5-yl)-5-fluorobenzonitrile]: the negative-log EC50 (pEC50) is 7.00 to 10.00.

Regarding `Cc1cnn(C)c1-c1ccc(F)c(N2CCN(C(=O)N3N=CCC3c3cncs3)CC2)n1` (stereo not shown) [Compound 296, (4-(6-(1,4-dimethyl-1H-pyrazol-5-yl)-3-fluoropyridin-2-yl)piperazinyl)(5-(thiazol-5-yl)-4,5-dihydro-1H-pyrazol-1-yl)methanone], the pEC50 was 7.00 to 10.00.

Regarding `Cc1nc(C#N)nn1-c1nc(N2CCN(C(=O)N3N=CC[C@H]3c3cc(F)cc(F)c3)CC2)ncc1F` [Compound 254, (S)-1-(2-(4-(5-(3,5-difluorophenyl)-4,5-dihydro-1H-pyrazole-1-carbonyl)piperazin-1-yl)-5-fluoropyrimidin-4-yl)-5-methyl-1H-1,2,4-triazole-3-carbonitrile], the pEC50 is 7.00 to 10.00.

For the compound `Cc1nn(-c2nc(N3CCN(C(=O)N4N=CC[C@H]4c4cc(F)cc(C#N)c4)CC3)ncc2F)c(C)c1C#N` [Compound 275, (S)-1-(2-(4-(5-(3-cyano-5-fluorophenyl)-4,5-dihydro-1H-pyrazole-1-carbonyl)piperazin-1-yl)-5-fluoropyrimidin-4-yl)-3,5-dimethyl-1H-pyrazole-4-carbonitrile], the pEC50 was 7.00 to 10.00.

For `Cn1ncnc1-c1ccc(F)c(N2CCN(C(=O)N3N=CC[C@H]3c3cc(F)cc(C#N)c3)CC2)n1` [Compound 176, (S)-3-fluoro-5-(1-(4-(3-fluoro-6-(1-methyl-1H-1,2,4-triazol-5-yl)pyridin-2-yl)piperazine-1-carbonyl)-4,5-dihydro-1H-pyrazol-5-yl)benzonitrile], the pEC50 is 7.00 to 10.00.

`Cc1c(N)nn(C)c1-c1ccnc(N2CCN(C(=O)N3N=CC[C@H]3c3cc(F)cc(C#N)c3)CC2)n1` [Compound 154, (S)-3-(1-(4-(4-(3-amino-1,4-dimethyl-1H-pyrazol-5-yl)pyrimidin-2-yl)piperazine-1-carbonyl)-4,5-dihydro-1H-pyrazol-5-yl)-5-fluorobenzonitrile]: the pEC50 is 7.00 to 10.00.

In the case of `Cn1nc(CO)nc1-c1ccnc(N2CCN(C(=O)N3N=CC[C@H]3c3cc(F)cc(C#N)c3)CC2)n1` [Compound 171, (S)-3-fluoro-5-(1-(4-(4-(3-(hydroxymethyl)-1-methyl-1H-1,2,4-triazol-5-yl)pyrimidin-2-yl)piperazine-1-carbonyl)-4,5-dihydro-1H-pyrazol-5-yl)benzonitrile], the pEC50 was 7.00 to 10.00.

As for `Cc1nc(CO)nn1-c1nc(N2CCN(C(=O)N3N=CC[C@H]3c3cncc(F)c3)CC2)ncc1F` [Compound 250, (S)-(4-(5-fluoro-4-(3-(hydroxymethyl)-5-methyl-1H-1,2,4-triazol-1-yl)pyrimidin-2-yl)piperazin-1-yl)(5-(5-fluoropyridin-3-yl)-4,5-dihydro-1H-pyrazol-1-yl)methanone], the pEC50 is 7.00 to 10.00.

Take `Cc1cnn(C)c1-c1ncc(F)c(N2CCN(C(=O)N3N=CC[C@H]3c3cc(F)cc(C#N)c3)CC2)n1` [Compound 268, (S)-3-(1-(4-(2-(1,4-dimethyl-1H-pyrazol-5-yl)-5-fluoropyrimidin-4-yl)piperazine-1-carbonyl)-4,5-dihydro-1H-pyrazol-5-yl)-5-fluorobenzonitrile]: the pEC50 was 7.00 to 10.00.

The values are drawn from US12454529B2, “Piperazine cyclic ureas” (SIRONAX LTD., priority 2020, dated 2025).
